Holding throughout (experiment): relative viability (nuclei count vs DMSO), 5 days (fraction); higher = more cells survive
Compound in the assay “VE-821 + Linsitinib”: CS(=O)(=O)c1ccc(-c2cnc(N)c(C(=O)Nc3ccccc3)n2)cc1 [VE-821] + C[C@]1(O)C[C@@H](c2nc(-c3ccc4ccc(-c5ccccc5)nc4c3)c3c(N)nccn32)C1 [Linsitinib] (partner 1 µM)
In outline: (§1)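 Medians of duplicate plates are given as relative viability. That measure is the nuclei count in treated wells divided by the count in vehicle wells. Counts were taken on 4× images of lung cancer cell lines in 1536-well plates, 5 days after pin-tool dosing the day after seeding with one drug alone or a fixed anchor-drug dose plus five library-drug doses (not always all listed) in √10 steps.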

Compound in the assay “Ruxolitinib + Navitoclax”: N#CC[C@H](C1CCCC1)n1cc(-c2ncnc3[nH]ccc23)cn1 [Ruxolitinib] + CC1(C)CCC(c2ccc(Cl)cc2)=C(CN2CCN(c3ccc(C(=O)NS(=O)(=O)c4ccc(N[C@H](CCN5CCOCC5)CSc5ccccc5)c(S(=O)(=O)C(F)(F)F)c4)cc3)CC2)C1 [Navitoclax] (partner 0.5 µM)
In outline:
as §1

Compound in the assay “Ruxolitinib + Vorinostat”: N#CC[C@H](C1CCCC1)n1cc(-c2ncnc3[nH]ccc23)cn1 [Ruxolitinib] + O=C(CCCCCCC(=O)Nc1ccccc1)NO [Vorinostat] (partner 1 µM)
A digest of the protocol: as §1

Compound in the assay “Vismodegib + Trametinib”: CS(=O)(=O)c1ccc(C(=O)Nc2ccc(Cl)c(-c3ccccn3)c2)c(Cl)c1 [Vismodegib] + CC(=O)Nc1cccc(-n2c(=O)n(C3CC3)c(=O)c3c(Nc4ccc(I)cc4F)n(C)c(=O)c(C)c32)c1 [Trametinib] (partner 0.02 µM)
A digest of the protocol: as §1

UMC-11: the relative viability in the assay with VE-821 + Linsitinib (first compound 0.08 µM) was found to be 1.14; with VE-821 + Linsitinib (first compound 0.253 µM), 1.03; with VE-821 + Linsitinib (first compound 0.8 µM), 1.06; with VE-821 + Linsitinib (first compound 2.53 µM), 1.04; with VE-821 + Linsitinib (first compound 8 µM) it was 0.533; in the assay with Ruxolitinib + Navitoclax (first compound 0.08 µM), 0.3. The relative viability in the assay with Ruxolitinib + Navitoclax (first compound 0.253 µM) was determined as 0.302; in the assay with Ruxolitinib + Navitoclax (first compound 0.8 µM), 0.388; in the assay with Ruxolitinib + Navitoclax (first compound 2.53 µM), 0.352; with Ruxolitinib + Navitoclax (first compound 8 µM), 0.288; with Ruxolitinib + Vorinostat (first compound 0.08 µM) it was 0.362; with Ruxolitinib + Vorinostat (first compound 0.253 µM), 0.384. The relative viability in the assay with Ruxolitinib + Vorinostat (first compound 0.8 µM) came out at 0.452; in the assay with Ruxolitinib + Vorinostat (first compound 2.53 µM), 0.48; with Ruxolitinib + Vorinostat (first compound 8 µM), 0.386; in the assay with Vismodegib + Trametinib (first compound 0.08 µM) it was 0.422; with Vismodegib + Trametinib (first compound 0.253 µM), 0.669; with Vismodegib + Trametinib (first compound 0.8 µM) it was 0.609. For the same cell line, the relative viability is 0.618 with Vismodegib + Trametinib (first compound 2.53 µM) and 0.375 in the assay with Vismodegib + Trametinib (first compound 8 µM).

Source of the values: the supplement of paper PMC10307832.
